Here are results for 22 molecules from US20200392158A1, “INHIBITORS OF LEUCINE RICH REPEAT KINASE 2” (GLAXOSMITHKLINE INTELLECTUAL PROPERTY DEVELOPMENT LIMITED, priority 2017, published 2020).

As a reminder, the IC50 is the point on the concentration scale where inhibition reaches its midpoint.

Counter-ions that a name gives are not always drawn.

T1 sequence (Q5S007 whole entry): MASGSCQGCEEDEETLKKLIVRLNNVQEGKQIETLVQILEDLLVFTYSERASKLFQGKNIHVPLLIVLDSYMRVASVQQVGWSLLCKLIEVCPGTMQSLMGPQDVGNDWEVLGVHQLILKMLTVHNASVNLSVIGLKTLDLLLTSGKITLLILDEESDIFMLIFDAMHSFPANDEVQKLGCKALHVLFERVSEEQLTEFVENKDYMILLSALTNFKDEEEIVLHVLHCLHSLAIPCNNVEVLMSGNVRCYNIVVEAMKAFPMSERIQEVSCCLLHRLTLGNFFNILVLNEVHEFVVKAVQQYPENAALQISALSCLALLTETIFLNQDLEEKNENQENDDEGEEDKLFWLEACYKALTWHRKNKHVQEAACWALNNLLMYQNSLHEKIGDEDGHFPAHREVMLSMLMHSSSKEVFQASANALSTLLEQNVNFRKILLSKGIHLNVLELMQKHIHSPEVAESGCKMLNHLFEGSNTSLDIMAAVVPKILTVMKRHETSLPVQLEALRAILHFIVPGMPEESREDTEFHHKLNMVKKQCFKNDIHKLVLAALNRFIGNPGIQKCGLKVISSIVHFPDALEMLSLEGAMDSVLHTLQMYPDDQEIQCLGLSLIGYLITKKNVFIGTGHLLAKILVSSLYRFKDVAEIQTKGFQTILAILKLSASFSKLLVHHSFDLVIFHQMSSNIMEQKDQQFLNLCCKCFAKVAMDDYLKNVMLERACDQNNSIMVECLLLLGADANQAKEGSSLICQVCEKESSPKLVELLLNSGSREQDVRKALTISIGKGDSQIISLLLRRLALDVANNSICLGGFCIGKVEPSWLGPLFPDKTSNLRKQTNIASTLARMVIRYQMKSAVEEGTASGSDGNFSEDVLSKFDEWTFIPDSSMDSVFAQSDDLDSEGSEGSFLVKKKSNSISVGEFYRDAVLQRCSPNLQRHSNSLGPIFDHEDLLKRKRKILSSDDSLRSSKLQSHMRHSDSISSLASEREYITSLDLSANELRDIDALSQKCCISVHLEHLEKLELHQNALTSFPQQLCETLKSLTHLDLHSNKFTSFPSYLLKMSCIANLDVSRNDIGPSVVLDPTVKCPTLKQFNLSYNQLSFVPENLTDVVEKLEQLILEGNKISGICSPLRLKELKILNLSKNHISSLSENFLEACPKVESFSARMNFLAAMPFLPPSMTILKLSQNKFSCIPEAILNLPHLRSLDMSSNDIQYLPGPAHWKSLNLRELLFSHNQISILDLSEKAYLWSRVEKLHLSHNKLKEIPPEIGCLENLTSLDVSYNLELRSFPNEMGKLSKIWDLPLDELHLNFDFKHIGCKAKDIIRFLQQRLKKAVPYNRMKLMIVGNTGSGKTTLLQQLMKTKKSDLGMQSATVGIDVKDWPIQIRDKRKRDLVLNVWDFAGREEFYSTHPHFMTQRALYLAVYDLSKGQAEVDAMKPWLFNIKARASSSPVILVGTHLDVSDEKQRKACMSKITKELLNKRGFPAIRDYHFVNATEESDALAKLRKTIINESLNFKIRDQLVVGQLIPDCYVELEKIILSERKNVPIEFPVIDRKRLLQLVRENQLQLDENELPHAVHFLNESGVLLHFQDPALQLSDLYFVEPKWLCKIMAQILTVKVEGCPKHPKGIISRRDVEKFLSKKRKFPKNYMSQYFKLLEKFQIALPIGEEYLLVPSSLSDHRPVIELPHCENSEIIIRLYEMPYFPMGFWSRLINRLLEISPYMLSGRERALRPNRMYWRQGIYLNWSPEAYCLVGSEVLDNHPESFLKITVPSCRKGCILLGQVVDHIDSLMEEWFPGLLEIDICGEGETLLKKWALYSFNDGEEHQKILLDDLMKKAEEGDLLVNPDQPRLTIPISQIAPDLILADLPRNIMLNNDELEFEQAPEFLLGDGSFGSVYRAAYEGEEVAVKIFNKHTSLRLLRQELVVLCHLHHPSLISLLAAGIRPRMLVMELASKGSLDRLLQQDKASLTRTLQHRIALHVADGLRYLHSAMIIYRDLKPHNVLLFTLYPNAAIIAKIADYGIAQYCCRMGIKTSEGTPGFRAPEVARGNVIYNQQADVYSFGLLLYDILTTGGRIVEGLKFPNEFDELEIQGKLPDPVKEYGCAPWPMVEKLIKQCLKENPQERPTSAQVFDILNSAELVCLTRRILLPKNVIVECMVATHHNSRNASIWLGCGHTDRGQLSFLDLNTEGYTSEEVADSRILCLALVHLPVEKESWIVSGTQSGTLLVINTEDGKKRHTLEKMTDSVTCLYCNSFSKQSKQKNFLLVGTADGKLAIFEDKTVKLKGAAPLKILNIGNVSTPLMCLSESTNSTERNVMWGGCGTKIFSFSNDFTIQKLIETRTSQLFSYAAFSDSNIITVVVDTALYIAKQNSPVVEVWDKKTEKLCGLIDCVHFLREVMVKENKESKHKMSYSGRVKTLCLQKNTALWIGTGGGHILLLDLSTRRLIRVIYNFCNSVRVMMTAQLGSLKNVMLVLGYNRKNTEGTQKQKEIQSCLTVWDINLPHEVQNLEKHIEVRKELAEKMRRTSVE

The experiment concerns the target T1, LRRK2 kinase in SH-SY5Y cells over-expressing recombinant full length LRRK2 (Homo sapiens, UniProt Q5S007).
T1 construct: A BacMam virus expressing full length recombinant LRRK2 was purchased from Invitrogen; host or cells: SH-SY5Y human neuroblastoma cells transduced with BacMam LRRK2 virus
Put plainly: Recombinant cellular LRRK2 AlphaScreen assay (LRRK2 Ser935 phosphorylation). The note with it: 60 min. Type of experiment: cell-based. Put shortly:
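Read-out is AlphaScreen of LRRK2 pSer935 over total LRRK2 in lysates of SH-SY5Y cells over-expressing full-length LRRK2 via BacMam (24 h transduction). Cells were exposed 60 min at 37 °C to an 11-point 1-in-4 dilution series starting at 10 uM; sigmoidal fit.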
Background: Bead proximity is the source of the signal in Alpha formats.
As for `Cc1c2c(nn1C1CCOCC1)OCC(OC(F)F)CNc1nc(ncc1Cl)N2` (single isomer, unassigned) [E284, 14-Chloro-10-(difluoromethoxy)-4-methyl-5-(oxan-4-yl)-8-oxa-2,5,6,12,16,17-hexaazatricyclo[11.3.1.0^3,7] heptadeca-1(16),3,6,13(17),14-pentaene], the IC50 was at most 100 nM.

As for `N#Cc1cnc2nc1NCCCOc1nn(C3CCOCC3)c(Cl)c1N2` [E15, 4-Chloro-5-(oxan-4-yl)-8-oxa-2,5,6,12,16,17-hexaazatricyclo[11.3.1.0^3,7]heptadeca-1(16),3,6,13(17),14-pentaene-14-carbonitrile], the IC50 was at most 100 nM.

As for `COC1COc2nc(ncc2Cl)Nc2c(nn(C3CCOCC3)c2C)OC1` (single isomer, unassigned) [E328, 14-Chloro-10-methoxy-4-methyl-5-(oxan-4-yl)-8,12-dioxa-2,5,6,16,17-pentaazatricyclo[11.3.1.0^3,7]heptadeca-1(16),3,6,13(17),14-pentaene], the IC50 was at most 100 nM.

Regarding `C[C@@H]1CCOc2nn(C3CN(C4COCCC4(F)F)C3)c(Cl)c2Nc2ncc(Cl)c(n2)N1` (stereo partly drawn) [E440, (11R)-4,14-Dichloro-5-[1-(4,4-difluorooxan-3-yl)azetidin-3-yl]-11-methyl-8-oxa-2,5,6,12,16,17-hexaazatricyclo[11.3.1.0^3,7]heptadeca-1(16),3,6,13(17),14-pentaene, TFA salt], the IC50 is at most 100 nM.

Turning to `COC1CNc2nc(ncc2Cl)Nc2c(nn(CCN3CCOCC3)c2C)OC1` (single isomer, unassigned) [E223, 14-Chloro-10-methoxy-4-methyl-5-[2-(morpholin-4-yl)ethyl]-8-oxa-2,5,6,12,16,17-hexaazatricyclo [11.3.1.0^3,7]heptadeca-1(16),3,6,13(17),14-pentaene], the 50% inhibitory concentration (IC50) was at most 100 nM.

Regarding `Cc1c2c(nn1C1CCC(F)(F)CC1)OCC[C@@H](C)Nc1nc(ncc1Cl)N2` [E373, (11R)-14-Chloro-5-(4,4-difluorocyclohexyl)-4,11-dimethyl-8-oxa-2,5,6,12,16,17-hexaazatricyclo[11.3.1.0^3,7]heptadeca-1(16),3,6,13 (17),14-pentaene], the IC50 is at most 100 nM.

For the molecule `Cc1c2c(nn1C)OCCCNc1nc(ncc1Cl)N2` [E108, 14-Chloro-4,5-dimethyl-8-oxa-2,5,6,12,16,17-hexaazatricyclo [11.3.1.0^3,7]heptadeca-1(16),3,6,13(17),14-pentaene], the IC50 was at most 100 nM.

`Cc1c2c(nn1C1CCC(F)(F)CC1)OCCCNc1nc(ncc1Cl)N2` [E142, 14-Chloro-5-(4,4-difluorocyclohexyl)-4-methyl-8-oxa-2,5,6,12, 16,17-hexaazatricyclo[11.3.1.0^3,7]heptadeca-1(16),3,6,13(17),14-pentaene]: the IC50 was at most 100 nM.

`Cc1c2c(nn1C(C)(C)C#N)OCCC(C)Nc1nc(ncc1Cl)N2` (single isomer, unassigned) [E44, 2-{14-chloro-4,11-dimethyl-8-oxa-2,5,6,12,16,17-hexaazatricyclo [11.3.1.0^3,7]heptadeca-1(16),3,6,13(17),14-pentaen-5-yl}-2-methylpropanenitrile]: the IC50 was at most 100 nM.

Regarding `Cc1c2c(nn1C1CCOCC1)OCC(F)CNc1nc(ncc1Cl)N2` (single isomer, unassigned) [E17, 14-Chloro-10-fluoro-4-methyl-5-(oxan-4-yl)-8-oxa-2,5,6,12,16,17-hexaazatricyclo [11.3.1.0^3,7]heptadeca-1(16),3,6,13(17),14-pentaene], the IC50 was at most 100 nM.

For `Cc1c2c(nn1C(C)(C)C#N)OCC(C)C(C)Nc1nc(ncc1Cl)N2` (single isomer, unassigned) [E165, 2-{14-Chloro-4,10,11-trimethyl-8-oxa-2,5,6, 12,16,17-hexaazatricyclo[11.3.1.0^3,7]heptadeca-1(16),3,6, 13(17),14-pentaen-5-yl}-2-methylpropanenitrile], the IC50 is at most 100 nM.

As for `COC1CCC(n2nc3c(c2C)Nc2ncc(Cl)c(n2)NCCCO3)CC1` (single isomer, unassigned) [E237, 14-Chloro-5-(4-methoxycyclohexyl)-4-methyl-8-oxa-2,5,6,12,16,17-hexaazatricyclo[11.3.1.0^3,7]heptadeca-1(16), 3,6,13(17),14-pentaene], the IC50 is at most 100 nM.

For `Cc1c2c(nn1C1CCCOC1)OCCCNc1nc(ncc1C(F)(F)F)N2` (single isomer, unassigned) [E132, 4-methyl-5-(oxan-3-yl)-14-(trifluoromethyl)-8-oxa-2,5,6,12,16,17-hexaazatricyclo[11.3.1.0^3,7]heptadeca-1(16),3,6,13(17),14-pentaene], the IC50 is at most 100 nM.

Regarding `COC1CNc2nc(ncc2Cl)Nc2c(nn(C3CCOC(C)C3)c2C)OC1` (single isomer, unassigned) [E206, 14-Chloro-10-methoxy-4-methyl-5-(2-methyloxan-4-yl)-8-oxa-2,5,6,12,16,17-hexaazatricyclo [11.3.1.0^3,7] heptadeca-1(16),3,6,13(17),14-pentaene], the IC50 was at most 100 nM.

With `Cc1c2c(nn1C1COC1)OCC(F)CNc1nc(ncc1Cl)N2` (single isomer, unassigned) [E322, 14-Chloro-10-fluoro-4-methyl-5-(oxetan-3-yl)-8-oxa-2,5,6,12,16,17-hexaazatricyclo[11.3.1.0^3,7]heptadeca-1(16),3,6,13(17),14-pentaene], the IC50 is at most 100 nM.

Consider `Cc1c2c(nn1C1CC3(COC3)C1)OCCC(C)Nc1nc(ncc1Cl)N2` (racemic), for which the half-inhibitory concentration (IC50) is over 10000 nM.

Take `Cc1c2c(nn1C1CN(C3COC3)CCO1)OCC[C@@H](C)Nc1nc(ncc1Cl)N2` (stereo partly drawn) [E402, (11R)-14-Chloro-4,11-dimethyl-5-[4-(oxetan-3-yl)morpholin-2-yl]-8-oxa-2,5,6,12,16,17-hexaazatricyclo[11.3.1.0^3,7]heptadeca-1(16),3,6,13(17),14-pentaene]: the IC50 is at most 100 nM.

Take `COC1CCCC(n2nc3c(c2C)Nc2ncc(Cl)c(n2)NCCCO3)C1` (single isomer, unassigned) [E178, 14-Chloro-5-(3-methoxycyclohexyl)-4-methyl-8-oxa-2,5,6,12,16,17-hexaazatricyclo[11.3.1.0^3,7]heptadeca-1(16),3,6,13(17),14-pentaene]: the IC50 was at most 100 nM.

Consider `COC1CCC(n2nc3c(c2C)Nc2ncc(Cl)c(n2)NCC(OC)CO3)CC1` (single isomer, unassigned) [E239, 14-Chloro-10-methoxy-5-(4-methoxycyclohexyl)-4-methyl-8-oxa-2,5,6,12,16,17-hexaazatricyclo [11.3.1. 0^3,7]heptadeca-1(16),3,6,13(17),14-pentaene], for which the IC50 was at most 100 nM.

As for `Cc1c2c(nn1C1CCOCC1)OCCCNc1nc(ncc1C(C)(C)C)N2` [E441, 14-tert-Butyl-4-methyl-5-(oxan-4-yl)-8-oxa-2,5,6,12,16,17-hexaazatricyclo[11.3.1.0^3,7]heptadeca-1(16),3,6,13(17),14-pentaene], the IC50 was over 10000 nM.

Consider `Cc1c2c(nn1C1CCOCC1F)OCC(F)CNc1nc(ncc1Cl)N2` (single isomer, unassigned) [E334, 14-Chloro-10-fluoro-5-(3-fluorooxan-4-yl)-4-methyl-8-oxa-2,5,6,12,16,17-hexaazatricyclo[11.3.1.0^3,7] heptadeca-1(16),3,6,13(17),14-pentaene], for which the IC50 is at most 100 nM.

`COCCN1CCC(n2nc3c(c2C)Nc2ncc(Cl)c(n2)N[C@H](C)CCO3)C(F)C1` (single isomer, unassigned) [E100]: the IC50 is at most 100 nM.
